Measurements: US20250041294A1, “Synergistic compositions for use in the treatment of cancer” (Sartar Therapeutics Oy, priority 2021, published 2025)

What was measured:
Type in all cases: cell-based
GOT3 cell line [1] = assay: High throughput drug sensitivity and resistance test (CellTiter-Glo, 72 hours); settings: GOT3; for GOT3 cell line: DSS(combo (anagrelide))-DSS(drug): drug combined with anagrelide hydrochloride (100 nM) minus drug alone; for GOT3 cell line: DSS(combo (BAY2666605))-DSS(drug): drug combined with BAY2666605 (40 nM) minus drug alone
How it was run: (§1)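 Compounds were plated in 10-fold dilutions spanning a 10,000-fold range, alone or with anagrelide (100 nM; SA4, GOT3) or BAY2666605 (40 nM; GIST882, SA4, GOT3). Viability was read by CellTiter-Glo after 72 h and normalized to DMSO and benzethonium chloride controls. Responses were expressed as DSS from four-parameter fits, and the single-agent DSS was subtracted from the combination DSS.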

SA4 cell line [2] = assay: as above; settings: SA4; for SA4 cell line: DSS(combo (anagrelide))-DSS(drug): drug combined with anagrelide hydrochloride (100 nM) minus drug alone; for SA4 cell line: DSS(combo (BAY2666605))-DSS(drug): drug combined with BAY2666605 (40 nM) minus drug alone
How it was run: as §1

GOT3 and SA4 cell lines = assay: High throughput drug sensitivity and resistance test, average over cell lines (anagrelide combination); settings: anagrelide combination, average of SA4 and GOT3; aDSS higher than 3.0 = synergy
Experimental: Cell lines. PDE3A-positive (GIST882, SA4, and GOT3) and PDE3A-negative cell lines (93TT449, 94T778, LPS141, MLS17656-92, MLS402-91, and SW872) were cultured in RPMI Medium 1640 (Gibco) with 5-, 10- or 20% fetal bovine serum (FBS, gibco), 100 U/mL of penicillin, 100 […] and 0.03 mg/mL of L-glutamine (Pen Strep Glut, Gibco, 10378-016) in a humidified, 5% CO2 atmosphere at 37° C.
High throughput drug sensitivity and resistance test. A sensitivity and resistance of cancer cell lines to 528 compounds were investigated in 9 cell lines (GIST882, SA4, GOT3, 93TT449, 94T778, LPS141, MLS17656-92, MLS402-91, and SW872). In addition, same compounds were investigated together with anagrelide hydrochloride (100 nM) treatment in the PDE3A low expressing cell lines SA4 and GOT3, and with BAY2666605 (40 nM) in all PDE3A-positive cell lines GIST882, SA4 and GOT3. The compounds were dissolved in 100% dimethyl sulfoxide or water and plated in 10-fold dilutions covering a 10,000-fold concentration range on flat clear bottom 384-well microplates as described in detail earlier (Pulkka O P, et al 2019). A cell viability was measured after 72 hours using CellTiter-Glo Cell Viability assay (Promega Inc.) and PHERAstar FS plate reader (BMG Labtech). The data were normalized to negative (0.01% dimethyl sulfoxide only) and positive (100 μmol/L benzethonium chloride) controls.
A four-parameter logistic dose-response curves were estimated by using the Marquardt-Levenberg algorithm and Breeze analysis platform. Drug responses to the test compounds were measured using the drug sensitivity score (DSS). Drug synergy partners, which were common in investigated cell lines were identified as following: DSS value of a single agent was subtracted from the DSS value of anagrelide-drug combination in single cell lines. […] The analysis was repeated by using BAY2666605 as a PDE3A modulator.

GIST882 cell line [3] = assay: Drug combination testing with concentration matrices, SynergyFinder 2.0; settings: combination with anagrelide, seven-concentration matrices
Experimental: (§2) Drug combination testing with anagrelide and 12 selected drugs was performed as described above but with selected drugs using drug concentration matrices covering seven different concentrations with 3 replicate sample of each combinations and in two replicate assays. […] The tool implements synergy scoring with four major reference models: HSA, Loewe, Bliss and ZIP models. The degree of a drug combination effect can be readily visualized as a synergy landscape map over the dose matrix and ZIP synergy score.

GOT3 cell line [4] = assay: as above; settings: combination with anagrelide, seven-concentration matrices
Experimental: as §2

SA4 cell line [5] = assay: as above; settings: combination with anagrelide, seven-concentration matrices
Experimental: as §2

[6] = test system: GIST882, GOT3 and SA4 cell lines; assay: High throughput drug sensitivity and resistance test, average over cell lines (BAY2666605 combination); settings: for synergy in high-throughput screening (in words): with anagrelide (GOT3, SA4) or BAY2666605 (GIST882, GOT3, SA4); for Average DSS (aDSS): BAY2666605 combination, average of GIST882, SA4 and GOT3, aDSS higher than 3.0 = synergy
How it was run: as §1

GIST882 cell line [7] = assay: High throughput drug sensitivity and resistance test (CellTiter-Glo, 72 hours); settings: drug combined with BAY2666605 (40 nM) minus drug alone
How it was run: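 GIST882 viability read by CellTiter-Glo after 72 h, normalized to 0.01% DMSO and 100 μmol/L benzethonium chloride. Compounds also combined with 40 nM BAY2666605. Four-parameter logistic curves; response as drug sensitivity score, with synergy as combination DSS minus single-agent DSS.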

Row | SMILES | GOT3 cell line: DSS(combo (anagrelide))-DSS(drug) (GOT3 cell line [1]) | SA4 cell line: DSS(combo (anagrelide))-DSS(drug) (SA4 cell line [2]) | Average DSS (aDSS) (GOT3 and SA4 cell lines) | Average ZIP synergy score (GIST882 cell line [3]) | Average ZIP synergy score (GOT3 cell line [4]) | Average ZIP synergy score (SA4 cell line [5]) | synergy in high-throughput screening (in words) [6] | GOT3 cell line: DSS(combo (BAY2666605))-DSS(drug) (GOT3 cell line [1]) | SA4 cell line: DSS(combo (BAY2666605))-DSS(drug) (SA4 cell line [2]) | Average DSS (aDSS) [6] | GIST882 cell line: DSS(combo (BAY2666605))-DSS(drug) (GIST882 cell line [7])
1 | CCN1C(=O)CNc2ncc(-c3ccc(-c4nc[nH]n4)nc3C)nc21 [CC-115] | 0.8 | 9.5 | 5.15 | 3.1 | 1.6 | 4.1 | synergistic |  |  |  | 
2 | Cc1ccc(NS(=O)(=O)c2cccc(C#N)c2)c2[nH]cc(C#N)c12 [E7820] | 7.5 | 18.2 | 12.85 | 3 | 1.6 | 14.8 | synergistic |  |  |  | 
3 | Cn1cc(CNCC2CCN(c3ncc(C(=O)NO)cn3)CC2)c2ccccc21 [Quisinostat, quisinostat] | 1.9 | 15.8 | 8.85 | 6.5 | 6.9 | 8.7 | synergistic | 8 | 16.2 | 11.0 | 8.7
4 | Cc1nc(Nc2n[nH]c3c2CN(C(=O)N[C@H](CN(C)C)c2ccccc2)C3(C)C)c2sccc2n1 [PF-03758309] | 3.7 | 20.1 | 11.9 | 11.5 | 8.5 | 16.8 | synergistic | −3.6 | 13.4 | 3.4 | 0.5
5 | CN(C)Cc1ccc(S(=O)(=O)n2ccc(/C=C/C(=O)NO)c2)cc1 [Resminostat, resminostat] | −0.1 | 13.5 | 6.7 |  |  |  | synergistic | 3.1 | 11.7 | 6.0 | 3.1
6 | Cc1[nH]c2ccccc2c1CCNCc1ccc(/C=C/C(=O)NO)cc1 [Panobinostat, panobinostat] | −0.5 | 11.7 | 5.6 |  |  |  |  | 8.2 | 6.7 | 7.0 | 6.1
7 | NS(=O)(=O)OC[C@@H]1C[C@@H](n2ccc3c(N[C@H]4CCc5ccccc54)ncnc32)C[C@@H]1O [Pevonedistat, pevonedistat] | 2.7 | 13.8 | 8.25 | 4.6 | 12.7 | 7.8 | synergistic | 6.2 | 7 | 7.5 | 9.3
8 | CO[C@H]1C[C@@H]2CC[C@@H](C)[C@@](O)(O2)C(=O)C(=O)N2CCCC[C@H]2C(=O)O[C@H]([C@H](C)C[C@@H]2CC[C@@H](OCCO)[C@H](OC)C2)CC(=O)[C@H](C)/C=C(\C)[C@@H](O)[C@@H](OC)C(=O)[C@H](C)C[C@H](C)/C=C/C=C/C=C/1C [Everolimus, everolimus] | 3 | 8.1 | 5.55 | 5 | 2.3 | 5.5 | synergistic | 4.1 | 12.4 | 6.5 | 3
9 | CC(=O)c1cnc2ccc(-c3cc(Cl)c(O)c(Cl)c3)nc2c1N[C@H]1CC[C@H](CN(C)C)CC1 [OTS167] | 0.6 | 10.5 | 5.55 |  |  |  | synergistic | 3.2 | 10.5 | 5.2 | 1.9
10 | CO[C@H]1C[C@@H]2CC[C@@H](C)[C@@](O)(O2)C(=O)C(=O)N2CCCC[C@H]2C(=O)O[C@H]([C@H](C)C[C@@H]2CC[C@@H](OC(=O)C(C)(CO)CO)[C@H](OC)C2)CC(=O)[C@H](C)/C=C(\C)[C@@H](O)[C@@H](OC)C(=O)[C@H](C)C[C@H](C)/C=C/C=C/C=C/1C [Temsirolimus, temsirolimus] | 1.1 | 9.8 | 5.45 | 2.8 | 0.4 | 3.6 | synergistic | 1.2 | 5.3 | 4.6 | 7.4
